Counter-ions that a name gives are not always drawn.
Assays:
Type in all cases: biochemical
[1] = biological target: T1, Tie2 (Homo sapiens, UniProt Q02763); experiment: Tie2 kinase test, phosphorylation of PLC with GST-Tie2; settings: GST-Tie2 intracellular domain 776-1124
T1 construct: amino acids of the intracellular domain 776-1124; made in house; host or cells: baculovirus expression (pFastBacGT vector)
Procedure: The coding sequence of human Tie2 corresponding to the amino acids of the intracellular domain 776-1124 was generated by PCR using the cDNA isolated from a human placenta as a model. This sequence was introduced into a pFastBacGT baculovirus expression vector in the form of a GST fusion protein.
The inhibitory effect of the molecules is determined in a test of phosphorylation of PLC with Tie2 in the presence of GST-Tie2 purified to about 80% homogeneity. The substrate is composed of the SH2-SH3 fragments of PLC expressed in the form of a GST fusion protein.
The kinase activity of Tie2 is measured in a MOPS 20 mM pH 7.2 buffer, containing 10 mM MgCl2, 10 mM MnCl2, 1 mM DTT, 10 mM of glycerophosphate. In a 96-well FlashPlate plate maintained on ice, a reaction mixture is deposited, composed of 70 μL of kinase buffer containing 100 ng of enzyme GST-Tie2 per well. Next, 10 μL of the test molecule diluted in DMSO to a maximum concentration of 10% are added. For a given concentration, each measurement is performed four times. The reaction is initiated by adding 20 μL of solution containing 2 μg of GST-PLC, 2 μm of cold ATP and 1 μCi of ^33P[ATP]. After incubation for one hour at 37° C., the reaction is stopped by adding 1 volume (100 μl) of 200 mM EDTA. After removal of the incubation buffer, the wells are washed three times with 300 μL of PBS. The radioactivity is measured on a MicroBeta1450 Wallac.
The inhibition of the Tie2 activity is calculated and expressed as a percentage of inhibition relative to the control activity determined in the absence of compound.

[2] = biological target: T2, CDK2/cycline E (Homo sapiens, UniProt P24941); experiment: CDK2/cyclineE Flashplate test in 96-well format; settings: CDK2/cycline E complex, 1 μM ATP
T2 construct: made in house; host or cells: Sf21 insect cells (baculovirus coinfection)
Procedure: Two recombinant baculoviruses bearing the human sequences coding, respectively, for CDK2 and cyclineE (the latter bearing a C-terminal hexahistidine tag) are used to coinfect Sf21 insect cells. Two to three days after the start of coinfection, the cells are harvested by centrifugation and then stored at −40° C. until the time of use.
A format in streptavidin-coated 96-well plates is used to test the activity of the compounds on the kinase activity of CDK2/cycline E.
To perform this test, the biotinylated peptide substrate, a fragment of the protein pRb (biotinyl-[…]-OH), is dissolved at a concentration of 1 mM in kinase buffer (HEPES/NaOH 50 mM, NaCl 1 mM, MgCl2 5 mM, pH 7.5) in order to constitute a stock solution stored at −20° C. in the form of 110 μL aliquots. On the day of the experiment, an aliquot of this solution is thawed and diluted in kinase buffer containing 1 mM of dithiothreitol, added to the buffer extemporaneously, in order to obtain a concentration of 14.3 μM. 70 μL of this solution are added to each well of the Flashplate in order to obtain a final substrate concentration of 10 μM during the enzymatic reaction performed in a final volume of the reaction medium of 100 μL (cf. below).
Intermediate dilutions of inhibitors (products of the invention) at various concentrations are prepared in DMSO from stock solutions at 10 mM in separate tubes. Dilutions at 1000 μM, 333.3 μM, 111.1 μM, 37.03 μM, 12.35 μM, 4.11 μM and 1.37 μM are thus prepared. One μL of each of these solutions (or 1 μL of DMSO for the controls) is transferred into the wells of the test plate.
19 μl of a solution of a mixture of adenosine triphosphate (ATP) and of ATPγ^33P in kinase buffer at a total concentration of 5.26 μM of ATP and 52.6 μCi/ml of ^33P are then added to each well. The enzymatic reaction is initiated by adding 10 μL per well of a 200 nM solution of CDK2/cycline E in kinase buffer containing 1 mM of dithiothreitol (or 10 μL of kinase buffer containing 1 mM of dithiothreitol for the reaction blanks).
After addition of each of the reagents, the final volume of each well is 100 μL, the final concentration of substrate is 10 μM, the final inhibitor concentrations are 10 μM, 3.33 μM, 1.11 μM, 0.37 μM, 0.123 μM, 0.041 μM and 0.014 μM (according to the concentration of the intermediate dilution), the final ATP concentration is 1 μM, the final amount of ^33P is 1 μCi/well, and the final concentration of CDK2/cycline E complex is 20 nM.
After addition of all of the reagents, the test plate is incubated at 30° C. with orbital shaking at 650 rpm.
When the incubation is complete, the plate is washed three times with 300 μL per well of PBS (phosphate-buffered saline, pH=7.4, without calcium or magnesium, reference 10010-015, Gibco BRL). The incorporation of ^33P to the peptide is quantified by scintillation counting with a Packard Topcount.NXT machine.

[3] = biological target: T3, Aurora1 (Homo sapiens, UniProt Q96GD4); experiment: Aurora1 enzymatic test, NuMA phosphorylation with [33P]ATP, Flashplate; settings: Aurora-B/INCENP-C3 recombinant complex, 1 μM ATP
T3 construct: His tag (N); made in house
T3 sequence (Q96GD4 whole entry, species assumed): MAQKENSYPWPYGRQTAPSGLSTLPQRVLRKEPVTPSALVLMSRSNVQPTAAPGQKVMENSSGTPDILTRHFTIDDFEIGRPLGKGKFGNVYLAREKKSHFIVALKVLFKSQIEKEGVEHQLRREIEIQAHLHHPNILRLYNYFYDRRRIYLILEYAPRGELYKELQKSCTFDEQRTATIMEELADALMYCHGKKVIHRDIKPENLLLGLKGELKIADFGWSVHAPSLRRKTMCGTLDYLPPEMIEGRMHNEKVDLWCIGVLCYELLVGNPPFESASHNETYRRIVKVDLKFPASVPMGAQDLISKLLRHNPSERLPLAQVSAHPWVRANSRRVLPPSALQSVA
T3 sequence (Q9NQS7 835-903 partner limits assumed, species assumed): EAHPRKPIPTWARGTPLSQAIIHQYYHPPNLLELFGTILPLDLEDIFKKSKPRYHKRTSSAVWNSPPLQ
Procedure: (§1) The inhibitory effect of compounds with respect to the kinases Aurora1 and Aurora2 is determined by means of an enzymatic test using radioactivity detection.
(§2) The kinase activity of Aurora1 and Aurora2 is evaluated via the phosphorylation of the substrate Numa-histidine in the presence of radiolabelled ATP ([^33P]ATP) using 96-well Flashplate plates in which the nickel chelate is bound to the surface of the microplate. The amount of ^33P phosphate incorporated into the NuMA substrate is proportional to the activity of the enzyme Aurora1 or Aurora2.
Aurora1: Aurora-B/INCENP-C3 recombinant complex, purified to about 50%, the N-terminal end of Aurora-B of which has been labeled with histidine.
(§3) NuMA (nuclear protein that combines with the mitotic apparatus): 424-amino acid fragment, expressed in E. coli, the N-terminal end of which has been labeled with histidine, and used as substrate for the two Aurora enzymes.
(§4) The microplates used are 96-well Flash-Plate plates, nickel chelate (Perkin-Elmer, model SMP107).
(§5) The products to be evaluated are incubated in a reaction volume of 100 μL per well, in the presence of 10 nM of Aurora1 or Aurora2, 500 nM of NuMA substrate in a buffer composed of 50 mM Tris/HCl (pH 7.5), 50 mM NaCl, 5 mM MgCl2 (Aurora-B) or 10 mM MgCl2 (Aurora-A) and 1 mM DTT, at 37° C.
(§6) 80 μL of enzyme/substrate incubation buffer are distributed in each well, followed by 10 μL of product to be evaluated, at variable concentrations. The reaction is initiated by adding 1 μM final of ATP containing 0.2 μCi of [^33P]ATP (10 μL). After incubating for 30 minutes, the reaction is quenched by simple removal of the reaction buffer and each well is washed twice with 300 μl of Tris/HCl buffer. The radioactivity is then measured in each well using a Packard, Top-Count model scintillation machine.
(§7) The control enzymatic activity of Aurora is expressed by the number of counts per minute obtained over 30 minutes after subtracting the background noise (reaction mixture containing no enzyme). The evaluation of the various test products is expressed as a percentage of inhibition of the Aurora activity relative to the control.

[4] = biological target: T4, Aurora2 (Homo sapiens, UniProt O14965); experiment: Aurora2 enzymatic test, NuMA phosphorylation with [33P]ATP, Flashplate; settings: whole recombinant protein, 1 μM ATP
T4 construct: Aurora2: whole recombinant protein comprising an N-terminal histidine tail; His tag (N); made in house; host or cells: E. coli
T4 sequence (O14965 1-403): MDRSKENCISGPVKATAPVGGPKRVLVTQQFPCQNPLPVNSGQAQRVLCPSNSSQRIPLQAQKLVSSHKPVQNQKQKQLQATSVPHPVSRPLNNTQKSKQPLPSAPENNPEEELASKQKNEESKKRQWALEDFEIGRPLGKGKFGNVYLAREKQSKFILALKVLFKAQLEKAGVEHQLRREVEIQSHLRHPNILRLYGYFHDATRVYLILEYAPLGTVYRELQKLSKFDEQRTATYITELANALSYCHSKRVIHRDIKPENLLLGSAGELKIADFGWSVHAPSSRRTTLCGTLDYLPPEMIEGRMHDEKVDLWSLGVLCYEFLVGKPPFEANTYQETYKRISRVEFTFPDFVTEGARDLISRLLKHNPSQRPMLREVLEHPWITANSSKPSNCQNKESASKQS
Procedure: as §1, §2
Aurora2: whole recombinant protein comprising an N-terminal histidine tail, was expressed in E. coli and purified to more than 82%.
as §3, §4, §5, §6, §7

T1 sequence (Q02763 776-1124): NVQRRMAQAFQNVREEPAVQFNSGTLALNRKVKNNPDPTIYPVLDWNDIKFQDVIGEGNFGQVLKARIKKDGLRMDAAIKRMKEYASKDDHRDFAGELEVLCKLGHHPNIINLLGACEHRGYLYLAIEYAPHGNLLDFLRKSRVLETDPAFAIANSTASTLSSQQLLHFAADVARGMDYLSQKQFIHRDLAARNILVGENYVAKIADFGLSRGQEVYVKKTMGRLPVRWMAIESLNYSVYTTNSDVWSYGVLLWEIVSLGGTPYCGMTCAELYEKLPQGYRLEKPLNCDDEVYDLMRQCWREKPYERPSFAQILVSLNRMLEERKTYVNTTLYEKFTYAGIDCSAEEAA

Structure (SMILES)	IC50 [1] [nM]	IC50 [2] [nM]	IC50 [3] [nM]	IC50 [4] [nM]
CN1CCCN(Cc2ccc(C(=O)Nc3n[nH]c4sc(C(=O)NN(C)c5ccccc5)cc34)cc2)CC1 [Example 12a, 4-(4-methylperhydro-1,4-diazepin-1-ylmethyl)-N-[5-(N′-methyl-N′-phenylhydrazinocarbonyl)-1H-thieno[2,3-c]-pyrazol-3-yl]benzamide]	564	126	128	31
CN1CCCN(Cc2ccc(C(=O)Nc3n[nH]c4sc(C(=O)NN(C)c5ccc(Cl)cc5)cc34)cc2)CC1 [Example 12b, 4-(4-methylperhydro-1,4-diazepin-1-ylmethyl)-N-[5-(N′-(4-chlorophenyl)-N′-methylhydrazinocarbonyl)-1H-thieno[2,3-c]pyrazol-3-yl]benzamide]	218	40	151	68
CN(NC(=O)c1cc2c(NC(=O)c3ccc(CN4CCNCC4)cc3)n[nH]c2s1)c1ccccc1 [Example 13a, N-[5-(N′-methyl-N′-phenylhydrazinocarbonyl)-1H-thieno[2,3-c]pyrazol-3-yl]-4-piperazin-1-ylmethylbenzamide]	679	151	141	23
CN(NC(=O)c1cc2c(NC(=O)c3ccc(CN4CCNCC4)cc3)n[nH]c2s1)c1ccc(Cl)cc1 [Example 13b, N-{5-[N′-(4-chlorophenyl)-N′-methylhydrazinocarbonyl]-1H-thieno[2,3-c]pyrazol-3-yl}-4-piperazin-1-ylmethylbenzamide]	324	49	182	85
CC1CN(Cc2ccc(C(=O)Nc3n[nH]c4sc(C(=O)NN(C)c5ccccc5)cc34)cc2)CCN1 (stereo not shown) [Example 14a, N-[5-(N′-methyl-N′-phenylhydrazinocarbonyl)-1H-thieno[2,3-c]pyrazol-3-yl]-4-(3-methylpiperazin-1-ylmethyl)benzamide]	737	166	158	19
CC1CN(Cc2ccc(C(=O)Nc3n[nH]c4sc(C(=O)NN(C)c5ccc(Cl)cc5)cc34)cc2)CCN1 (stereo not shown) [Example 14b, N-{5-[N′-(4-chlorophenyl)-N′-methylhydrazinocarbonyl]-1H-thieno[2,3-c]pyrazol-3-yl}-4-(3-methylpiperazin-1-ylmethyl)benzamide]	425	46	148	44
CCN(CC)Cc1ccc(C(=O)Nc2n[nH]c3sc(C(=O)NN(C)c4ccccc4)cc23)cc1 [Example 15a, 4-diethylaminomethyl-N-[5-(N′-methyl-N′-phenylhydrazinocarbonyl)-1H-thieno[2,3-c]pyrazol-3-yl]benzamide trifluoroacetate]	623	210	114	12
CCN(CC)Cc1ccc(C(=O)Nc2n[nH]c3sc(C(=O)NN(C)c4ccc(Cl)cc4)cc23)cc1 [Example 15b, N-{5-[N′-(4-chlorophenyl)-N′-methylhydrazinocarbonyl]-1H-thieno[2,3-c]pyrazol-3-yl}-4-diethylaminomethylbenzamide]	393	82	329	37
CN1CCN(Cc2cccc(C(=O)Nc3n[nH]c4sc(C(=O)NN(C)c5ccccc5)cc34)c2)CC1 [Example 16a, N-[5-(N′-methyl-N′-phenylhydrazinocarbonyl)-1H-thieno[2,3-c]pyrazol-3-yl]-3-(4-methylpiperazin-1-ylmethyl)-benzamide]	3210	942	992	301
CN1CCN(Cc2cccc(C(=O)Nc3n[nH]c4sc(C(=O)NN(C)c5ccc(Cl)cc5)cc34)c2)CC1 [Example 16b, N-[5-(N′-(4-chlorophenyl)-N′-methylhydrazinocarbonyl)-1H-thieno[2,3-c]pyrazol-3-yl]-3-(4-methylpiperazin-1-ylmethyl)benzamide]	2010	301	936	606

Source: patent US7595320B2, “Hydrazinocarbonyl-thieno[2,3-C]pyrazoles, process for preparing them, compositions containing them and use thereof” (Aventis Pharma S.A., priority 2005, dated 2009)
